# Where “and” joins values, the source holds several entries; their conditions need not be identical. Identical values can stand only once.
# Experiments:
# [1] = test system: subintestinal vessels (SIVs); assay: Angiogenic assay in Tg (fli1: EGFP) zebrafish; assay type: in vivo; conditions: compared with control group
# Procedure: The zebrafish model of transplanted breast cancer was constructed in accordance with the methods in the literature. Juvenile 48 h old breast cancer model zebrafish were placed in 48-well plates (n = 10), and 0.2 mL aquaculture water without or with Δ−3 (0, 2.5, 5, and 10 μM) was added for culture. Images were captured every 24 h using a fluorescence microscope to study the inhibitory effect of Δ−3 on zebrafish with breast cancer. In addition, the mean number of sprout and mean length of sprout in subintestinal vessels (SIVs) were analyzed by ImageProPlus software. The ethical protocols for the in vivo research on zebrafish complied with relevant laws.
# MDA-MB-231 cells [2] = assay: Wound-healing assay; assay type: cell-based, human
# Procedure: MDA-MB-231 cells (1 × 10^5 cells/well) were inoculated in a 6-well cell culture plate marked on the back until a single layer of cells covered more than 90% of the bottom of the culture plate, and a 200 µL pipette was used to scratch the culture. Different concentrations of the complexes (0, 2.5, 5, and 10 µM) were applied for 72 h. Migrating cells in the same field of view were observed and recorded every 24 h, and the average cell migration rate was calculated in three fields for every group.
# MDA-MB-231 cells [3] = assay: Flow cytometry, apoptosis (Annexin V-FITC/PI); assay type: cell-based, human; conditions: 72 h, control 2.77%
# Procedure: MDA-MB-231 cells were treated with different concentrations of the complexes (0, 10, 20, and 40 μM) for 72 h, then collected and stained with an Annexin V-FITC/PI Apoptosis Detection Kit I (BD, 556547). The MDA-MB-231 cells were fixed with 70% ethanol at 4 °C for 30 min, and then collected and stained with PI/RNase Staining Buffer (BD, 550825). The cells were analyzed by flow cytometry (Beckman, CytoFLEX). All experiments were repeated three times.
# MDA-MB-231 cells [4] = assay: ICP detection of Ru content in cells; assay type: cell-based, human; conditions: 24 h, control 0.4
# Procedure: MDA-MB-231 cells were seeded in 10 cm cell culture dishes. After cell adherence, the cells were treated with the drug (0, 2.5, 5, and 10 μM) for 24 h. After 24 h, the cells were washed with PBS three times and collected by trypsin. The number of collected cells was counted by a cell counter. Then, the cells were digested in 1 mL HNO3 solution by microwave digestion at 120 °C for 3 min, and 1 mL of this solution was transferred to a 5 mL volumetric flask, diluted with distilled water to volume, and mixed. The Ru content of these solutions was analyzed by an ICP optical emission spectrometer (NCS, Plasma 2000). All measurements were repeated three times.
# HUVECs = assay: Tube formation assay; assay type: cell-based, human; conditions: 10 μM, 6 h, VEGF 200 ng/mL
# Procedure: Dissolving matrigel (4 °C, 24 h) was used to coat prechilled 96-well plates (50 μL/well, 37 °C, for at least 60 min). Then, the unsolid fluid was removed, and HUVECs at the density of 3 × 10^4 were cultured in DMEM with VEGF (200 ng/mL) containing the different concentrations of Δ−3 (0, 5, and 10 μM) for 6 h.
# MDA-MB-231 cells [5] = assay: Comet assay; assay type: cell-based, human; conditions: 5 and 10 μM
# Procedure: DNA damage was detected by single-cell gel electrophoresis by using the Comet assay kit (Trevigen). MDA-MB-231 cells were added to a culture dish containing the medium. After treatment with different concentrations of the complexes (0, 5, and 10 μM) at 37 °C for 72 h, the cells were collected and washed with PBS three times. A solution of the cell suspension and melted low-melting-point agarose gel was mixed at a volume ratio of 1:7, and the equilateral sample was immediately transferred to a Comet Slide TM slide. The slides were washed twice with PBS, placed into an electrophoresis tank containing comet electrophoresis solution, and electrophoresed at 25 V for 30 min. After electrophoresis, the slides were washed twice with PBS. Finally, the cells were stained with EB and observed under a fluorescence microscope. Cells were randomly selected from each slide to take photos, and the tail moment was analyzed.
# A549 cells = assay: MTT assay, A549 cells; assay type: cell-based, human; conditions: 72 h, read-out: Inhibitory Effect (IC50/μM) A549
# Procedure: (§1) Liver cancer HepG2 cells, lung cancer A549 cells, breast cancer MCF-7 and MDA-MB-231 cells, human nasopharyngeal carcinoma CNE-1 cells, and human immortalized keratinocyte HaCaT cells were seeded in 96-well plates (5 × 10^3 cells per well) and cultured at 37 °C and 5% CO2 for 24 h. Cells were treated with different concentrations of the complexes (0, 1.5625, 3.125, 6.25, 12.5, 25, 50, and 100 µM) for 72 h. After adding 20 µL MTT (5 mg/mL) solution to each well, the cells were incubated for 4 h, and then 150 µL DMSO was added to each well. The optical density of each well was detected by a microplate reader at a wavelength of 570 nm. The cell survival rate (%) = A(experimental group)/A(control group) × 100%, and the IC50 value was analyzed and calculated based on the survival rate.
# CNE-1 cells = assay: MTT assay, CNE-1 cells; assay type: cell-based, human; conditions: 72 h, read-out: Inhibitory Effect (IC50/μM) CNE-1
# Procedure: as §1
# HaCaT cells = assay: MTT assay, normal HaCaT keratinocytes; assay type: cell-based; conditions: 72 h, normal human keratinocytes, read-out: Inhibitory Effect (IC50/μM) HaCaT
# Procedure: as §1
# c-myc G-quadruplex DNA = assay: FRET melting assay; assay type: binding, human; conditions: free DNA Tm 59.5 °C
# Procedure: Carboxy fluorescein (FAM) and 6-carboxytetramethyl rhodamine (TAMRA) double fluorescent-labeled c-myc G4 DNA (5′−FAM-TGAGGGTGGGAGGGGTAA-TAMRA−3′) were heated to 95 °C in Tris-HCl-KCl buffer (containing 10 mM Tris-HCl, 100 mM KCl, pH 7.4) for 5 min and slowly cooled to room temperature. To ds26, double-stranded DNA ([…]) is a competitive binder, research Λ/Δ−3 with c-myc G4 selectivity binding ability of DNA. A Bio-Radiq5 real-time PCR detection system was used to measure the fluorescence melting curve. Approximately 1 μM (5 μL) FPU22T was mixed with a series of 5 μL compound solutions of different concentrations, and 15 μLTris-HCl-KCl buffer was added to the PCR 8 tube to obtain a total volume of 25 μL. A real-time fluorescence quantitative PCR instrument was used, and incubation was performed at 30 °C for 30 min. The program temperature range was set to 30–95 °C at a temperature interval of 1 °C, and recording was performed after balancing for 30 s to detect the fluorescence value of FAM. The conditions of the reaction system were similar to those of the FRET melting point test except that different concentrations of ds26 were added.
substance,measurement,setting,value
Δ-[Ru(bpy)2(3-NBEDPPZ)](ClO4)2 [Δ−3],number and length of SIVs,[1],significantly decreased
same,migration rate (wound healing),"MDA-MB-231 cells [2]; 10 μM, different treatment times",less than half that of the control
same,migration of cells (wound healing),MDA-MB-231 cells [2]; 2.5 and 5 μM,inhibited inconspicuously
same,proportion of apoptotic cells,MDA-MB-231 cells [3]; 10 μM,5.39%
same,proportion of apoptotic cells,MDA-MB-231 cells [3]; 20 μM,7.95%
same,proportion of apoptotic cells,MDA-MB-231 cells [3]; 40 μM,16.27%
same,Ru content in cells,MDA-MB-231 cells [4]; 2.5 μM,0.52 ng/mL per 1 × 10^4 cells
same,Ru content in cells,MDA-MB-231 cells [4]; 5 μM,1.82 ng/mL per 1 × 10^4 cells
same,Ru content in cells,MDA-MB-231 cells [4]; 10 μM,2.91 ng/mL per 1 × 10^4 cells
same,tubular structures of HUVECs on Matrigel,HUVECs,sparse and incomplete
same,DNA damage (comet appearance),MDA-MB-231 cells [5],cometary shapes appeared
same,IC50,A549 cells,24.7 ± 0.28 µM
same,IC50,CNE-1 cells,40.9 ± 0.53 µM
same,IC50,HaCaT cells,70.9 µM and 71 µM
same,ΔTm,c-myc G-quadruplex DNA; complex 0.5 μM,approximately 3.5 °C
same,ΔTm,c-myc G-quadruplex DNA; complex 1.0 μM,~7.2 °C

# Source: PMC9820592, “Novel Chiral Ru(II) Complexes as Potential c-myc G-quadruplex DNA Stabilizers Inducing DNA Damage to Suppress Triple-Negative Breast Cancer Progression” (International Journal of Molecular Sciences, 2022)
